Assay results taken from patent publication US11549123B2, “Plant EPSP synthases and methods of use” (PIONEER HI-BRED INTERNATIONAL, INC., priority 2015, dated 2023).
Positions count from the first letter of the chain named.

Legend:
Type in all cases: biochemical
[1] = biological target: T1, Zea mays EPSPS variant L-T at positions 103-107 (Zea mays, UniProt O24566, P106T/T102L); assay: EPSPS substrate saturation kinetics, maize variant 103L 107T
T1 sequence (O24566 with tags, fused parts or gaps T102L/P106T): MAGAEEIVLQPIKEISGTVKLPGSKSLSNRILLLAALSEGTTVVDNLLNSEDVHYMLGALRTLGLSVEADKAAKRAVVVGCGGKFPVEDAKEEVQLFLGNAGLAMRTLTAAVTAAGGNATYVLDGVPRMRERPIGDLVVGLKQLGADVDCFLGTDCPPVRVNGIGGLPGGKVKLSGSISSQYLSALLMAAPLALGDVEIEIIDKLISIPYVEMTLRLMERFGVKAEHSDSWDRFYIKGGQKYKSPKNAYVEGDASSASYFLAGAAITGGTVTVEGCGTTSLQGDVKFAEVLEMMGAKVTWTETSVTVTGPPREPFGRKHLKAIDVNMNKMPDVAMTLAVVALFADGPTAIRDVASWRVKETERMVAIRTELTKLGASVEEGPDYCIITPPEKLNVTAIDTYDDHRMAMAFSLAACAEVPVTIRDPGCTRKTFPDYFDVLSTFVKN
Description: (§1) EPSPS activity was determined by quantifying the phosphate generated from the EPSPS reaction. Release of inorganic phosphate was coupled to reaction with 2-amino-6-mercapto-7-methylpurine ribonucleoside, catalyzed by purine-nucleoside phosphorylase (M R Webb, Proc. Natl. Acad. Sci. 89:4884-4887, 1992). The absorbance change that occurs was monitored at 360 nm, where the extinction is 11,200 M^−1 cm^−1, with a Spectramax plate reader (Molecular Devices). To determine kinetic parameters, the varied substrate was present at seven concentrations (the eighth being the blank, containing no substrate) ranging from 4 to 400 uM and the unvaried substrate present at saturation. Six microliters of 50-fold concentrated stock solutions of the varied substrate were placed in the wells of the 96-well assay plate and reactions were started with the addition of a mixture containing 25 mM Hepes, pH 7, 100 mM KCl, 0.3 mM 2-amino-6-mercapto-7-methylpurine ribonucleosde, 1 uM (1 unit/ml) purine-nucleoside phosphorylase (Sigma N8264) and 200 uM of the non-varied substrate. Reactions were monitored with a Spectramax plate reader. The Michaelis-Menten kinetics protocol of the Spectramax software was customized for the substrate concentrations used. The software returns values of KM and Vmax using the Lineweaver-Burke transformation of the Michaelis-Menten equation. To determine kcat, Vmax (uM/min) was divided by the enzyme concentration (uM). […] KI was then calculated from the following form of the Michaelis-Menten equation for competitive inhibition: KI=KM[I]/(KM app−KM) KM approximates the dissociation constant of the enzyme-substrate complex while kcat is the rate of conversion of substrate to product when the substrate concentration is saturating. kcat/KM is a widely accepted parameter for catalytic efficiency when substrate concentration is low (˜KM). […] The parameter kcat/KM×KI is used to quantify both catalytic efficiency and insensitivity and thus the overall fitness of the enzyme. […]

[2] = biological target: T2, Zea mays EPSPS variant S-N at positions 103-107 (Zea mays, UniProt O24566, P106N/T102S); assay: EPSPS substrate saturation kinetics, maize variant 103S 107N
T2 sequence (O24566 with tags, fused parts or gaps T102S/P106N): T1 sequence (O24566 with tags, fused parts or gaps T102L/P106T) with L103S, T107N
Description: as §1

[3] = biological target: T3, Zea mays EPSPS variant WT-FS-E (102A 302S 391G 438R) (Zea mays, UniProt O24566, E301S/E390G/G101A/V437R); assay: EPSPS substrate saturation kinetics, WT-FS-E
T3 sequence (O24566 with tags, fused parts or gaps G101A/E301S/E390G/V437R): T1 sequence (O24566 with tags, fused parts or gaps T102L/P106T) with G102A, L103T, T107P, E302S, E391G, V438R
Description: as §1, with “reader.” for “reader. The Michaelis-Menten kinetics protocol of the Spectramax software was customized for the substrate concentrations used. The software returns values of KM and Vmax using the Lineweaver-Burke transformation of the Michaelis-Menten equation. To determine kcat, Vmax (uM/min) was divided by the enzyme concentration (uM).”
The vector DNA of the library was transformed into the BL21(DE3) Tuner AroA knockout strain and the cells were plated onto M9 medium containing 50 mM glyphosate. A small aliquot of the transformed cells was plated on LB, by which it was determined that 1.1×10^8 colony forming units, or 20% of the theoretical library size, were plated and screened. […]

[4] = PEP as substrate, glyphosate as inhibitor

C=C(OP(=O)(O)O)C(=O)O [PEP, phosphoenolpyruvate]
kcat ([1]; PEP varied): 184
kcat ([2]; PEP varied): 161
improvement in KM for PEP ([3]; compared to G102A alone): 2 fold

O=C(O)CNCP(=O)(O)O [glyphosate, N-phosphonomethylglycine]
Ki [1]: 289 µM
(kcat/KM)*KI [1, 4]: 1163
Ki [2]: 244 µM
(kcat/KM)*KI [2, 4]: 1033
Ki [3]: 1150 µM
(kcat/KM)*KI [3, 4]: 2763
